The results in this text go back to patent publication US20250276995A1, “PRODUCTION METHOD FOR PEPTIDE COMPOUND” (CHUGAI SEIYAKU KABUSHIKI KAISHA, priority 2022, published 2025).

Structures are written as SMILES.

This data set can be described thus: Verification of solubility of carbodiimide-derived urea in NMP and DMF. The format is physicochemical. As to conditions: for Re-precipitation: 0.77 M, after 24 hours or more. The source says: The concentration of carbodiimide at the time of preactivation performed in the elongation steps of Reference Example 2-3 and Examples 2-4 and 2-5 was 0.77 mol/L. To confirm the risk of precipitation in case that all carbodiimide is converted to urea, the solubility in NMP and DMF was confirmed according to the following procedure, using the DIC-derived urea with which precipitates were confirmed in Reference Examples 2-3 and the DsBC-derived urea with which no precipitates were confirmed in Examples 2-4 and 2-5.
Into 1.5 mL vials with a screw cap, DIC urea (compound SS05) and DsBC urea (compound SS06) synthesized in Example 1-3 were weighed and placed as described in Table 11, and NMP or DMF was added to be each concentration. The mixture was stirred at room temperature for 5 minutes or more, and then allowed to stand to confirm whether the urea was dissolved or not. […]

[1] abbreviates: solvent DMF, concentration 0.77 M (0.77 mol/L), room temperature.
Where [2] appears, read: solvent NMP, concentration 0.77 M (0.77 mol/L), room temperature.

On to `CC(C)NC(=O)NC(C)C` [SS05, 1,3-Diisopropylurea], for which the Dissolved or not result by setting is: (in DMF at 0.17 M or more) “not fully dissolved”; (in NMP at a concentration of 0.34 M or more) “not fully dissolved”; (solvent DMF, concentration 0.17 M, room temperature) “not fully dissolved”; (solvent DMF, concentration 0.34 M, room temperature) “not fully dissolved”; (solvent DMF, concentration 0.38 M, room temperature) “not fully dissolved”; (solvent DMF, concentration 0.51 M, room temperature) “not fully dissolved”. Moreover, the Dissolved or not entry under setting [1] is recorded as “not fully dissolved”; the Dissolved or not result (solvent NMP, concentration 0.17 M, room temperature, stirred 5 minutes or more then allowed to stand) is “dissolved”; the Dissolved or not result (solvent NMP, concentration 0.34 M, room temperature) is “not fully dissolved”; the Dissolved or not entry (solvent NMP, concentration 0.38 M, room temperature) is “not fully dissolved”; the Dissolved or not result (solvent NMP, concentration 0.51 M, room temperature) is “not fully dissolved”; the Dissolved or not entry under setting [2] was “not fully dissolved”.
Take `CCC(C)NC(=O)NC(C)CC` (stereo not shown) [SS06, 1,3-di-sec-butylurea]: the Re-precipitation entry (DMF) is reported as “no re-precipitation was confirmed” and the Re-precipitation result (NMP) is listed as “no re-precipitation was confirmed”. Moreover, the Dissolved or not result under setting [1] is on record as “completely dissolved”; the Dissolved or not result (solvent DMF, concentration 0.77 M (0.77 mol/L), room temperature, listed as DsBC Urea (SS06)) is recorded as “dissolved”; the Dissolved or not entry under setting [2] is “completely dissolved”; the Dissolved or not result (solvent NMP, concentration 0.77 M (0.77 mol/L), room temperature, listed as DsBC Urea (SS06)) is on record as “dissolved”.
Turning to `CCNC(=O)NC(C)(C)C` [SS07, 1-(tert-butyl)-3-ethylurea], the Re-precipitation result (DMF) was “no re-precipitation was confirmed” and the Re-precipitation entry (NMP) is “no re-precipitation was confirmed”. For the same compound, the Dissolved or not result was “completely dissolved” under setting [1] and “completely dissolved” under setting [2].
